From patent US20070270421A1, “Novel pyridine Derivative and Pyrimidine Derivative (1)” (priority 2004, published 2007)

Target: T1, HGFR (His6-HGFR cytoplasmic domain) (Homo sapiens, UniProt P08581)
T1 construct: made in house; host or cells: Spodoptera frugiperda Sf9 insect cells (baculovirus, pFastBac-HT)
Experiment: Inhibitory activity against HGFR tyrosine kinase activity (HTRF)
Format: biochemical
Settings: biotin-poly(GT), ATP, 30° C. 10 min, read-out: IC50 (concentration necessary to inhibit HGFR kinase activity by 50%)
Text: The cytoplasmic domain of HGFR (Genbank Accession No. J02958) is a 1.3 kb DNA fragment beginning with Lys974 and including a stop codon, and described by Park et al. (Proc. Natl. Acad. Sci. U.S.A. 84(18), 6379-6383, 1987). The DNA fragment was isolated from the human placental cDNA library (purchased from Clontech) by PCR (TaKaRa Ex Taq™ Kit, purchased from TaKaRa) using two kinds of primers (SEQ ID NO: 1, 5′-[…]-3′ and SEQ ID NO: 2, 5′-[…]-3′, purchased from Invitrogen). The DNA fragment was cloned into a baculovirus transplace vector (pFastBac™-HT (purchased from GIBCO BRL)) to produce a recombinant construct. The construct was transfected into insect cells (Spodoptera frugiperda 9 (Sf9)) to produce a solution of HGFR transfected baculovirus (preparation of a recombinant baculovirus can be found in the standard text (Bac-to-Bac Baculovirus Expression System (GIBCO BRL)). The cloning of the other receptor tyrosine kinases and preparation of the recombinant baculovirus solutions were performed using a cytoplasmic fragment starting from Lys791 (VEGFR2, Genbank Accession No. L04947), a cytoplasmic fragment starting from Lys398 (FGFR1, Genbank Accession No. X52833) and a cytoplasmic fragment starting from Lys558 (PDGFRβ, Genbank Accession No. M21616) in stead of HGFR in the above method. EGFR was purchased from Sigma (Production No. E-2645).
To the suspension of Sf9 cells (3×10^8 cells) in SF-900II medium (purchased from Invitrogen) containing 2% FBS was added a solution of HGFR transfected baculovirus above (4 ml), followed by a shaking culture at 27° C. for 48 hrs. The cells infected with the HGFR transfected baculovirus were centrifuged at 1,000 rpm, 4° C. for 5 min to remove the supernatant. The precipitated infected cells were suspended in 80 ml of ice-cold PBS, and centrifuged at 1,000 rpm, 4° C. for 5 min to remove the supernatant. The precipitated infected cells were suspended in 40 ml of ice-cold Lysis Buffer (50 mM Tris-HCl (pH 8.5), 5 mM 2-mercaptoethanol, 100 mM KCl, 1 mM PMSF and 1% (v/v) NP-40). The suspension was centrifuged at 12,000 rpm, 4° C. for 30 min to provide a supernatant.
The supernatant was loaded onto an Ni-NTA agarose column (3 ml, purchased from Qiagen) equilibrated with 30 ml of Buffer A (20 mM Tris-HCl (pH 8.5), 5 mM 2-mercaptoethanol, 500 mM KCl, 20 mM imidazole and 10% (v/v) glycerol). The column was washed with 30 ml of Buffer A, 6 ml of Buffer B (20 mM Tris-HCl (pH 8.5), 5 mM 2-mercaptoethanol, 1 M KCl, and 10% (v/v) glycerol) and 6 ml of Buffer A in this order. Then, the column was eluted with 6 ml of Buffer C (20 mM Tris-HCl (pH 8.5), 5 mM 2-mercaptoethanol, 100 mM KCl, 100 mM imidazole, and 10% (v/v) glycerol) to provide a fraction. The fraction was entrapped in a dialysis membrane (purchased from Spectrum Laboratories), dialyzed at 4° C. overnight with 1 L of dialysis buffer (20 mM Tris-HCl (pH 7.5), 10% (v/v) glycerol, 1 mM dithiothreitol, 0.1 mM Na3VO4 and 0.1 mM EGTA), and stored at −80° C. until used. An aliquot of the dialyzed fraction was subjected to SDS electrophoresis, and then a recombinant protein (His6-HGFR, the HGFR cytoplasmic domain fused with six histidine at the N terminus) detected at a molecular weight of about 60 kDa when stained with Coomassie Brilliant Blue, was determined with regard to protein content using BSA (purchased from Sigma) as a standard. The VEGFR2 cytoplasmic domain, the FGFR1 cytoplasmic domain, and the PDGFRβ cytoplasmic domain were fused with six histidine at the N terminus by the similar method to produce respective recombinant proteins (His6-VEGFR2, His6-FGFR1, and His6-PDGFRβ). […]

T1 sequence (P08581 956-1390 limits assumed): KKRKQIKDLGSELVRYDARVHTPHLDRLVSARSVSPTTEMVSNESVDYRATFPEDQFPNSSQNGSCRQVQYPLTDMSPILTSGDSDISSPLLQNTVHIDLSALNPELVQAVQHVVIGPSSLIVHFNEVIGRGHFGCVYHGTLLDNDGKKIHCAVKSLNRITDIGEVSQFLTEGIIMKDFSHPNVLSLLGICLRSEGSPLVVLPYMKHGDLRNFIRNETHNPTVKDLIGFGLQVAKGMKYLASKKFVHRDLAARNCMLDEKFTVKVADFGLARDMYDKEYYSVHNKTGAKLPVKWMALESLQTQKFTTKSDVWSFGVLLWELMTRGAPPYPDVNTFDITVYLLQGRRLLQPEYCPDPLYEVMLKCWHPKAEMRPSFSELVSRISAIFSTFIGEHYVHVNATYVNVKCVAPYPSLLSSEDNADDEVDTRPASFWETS

IC50 [nM]	Compound
100	O=C(CC(=O)Nc1c(F)cccc1F)Nc1ccc(Oc2ccnc(NC(=O)N3CCCC3)c2)c(F)c1 [Example 59, N-(2,6-Difluorophenyl)-N′-(3-fluoro-4-{2-[(pyrrolidine-1-carbonyl)amino]pyridin-4-yloxy}phenyl)malonamide]
100	CC(C)C(=O)Nc1cc(Oc2ccc(NC(=O)CC(=O)Nc3ccc(F)cc3)c(F)c2)ccn1 [Example 76, N-(4-Fluorophenyl)-N′-[4-(2-isobutylylaminopyridin-4-yloxy)-2-fluorophenyl]malonamide]
77	CN(C)C1CN(C2CCN(C(=O)Nc3cc(Oc4ccc(NC(=S)NC(=O)Cc5ccccc5)cc4F)ccn3)CC2)C1 [Example 373, 4-(3-Dimethylaminoazetidin-1-yl)piperidine-1-carboxylic acid {4-[2-fluoro-4-(3-phenylacetylthioureido)phenoxy]pyridin-2-yl}amide]
83	CN(C)[C@H]1CCN(C(=O)Nc2cc(Oc3ccc(NC(=S)NC(=O)Cc4ccc(F)cc4)cc3F)ncn2)C1 [Example 254, 4-{[(3S)-3-Dimethylaminopyrrolidin-1-yl]carbonylamino}-6-(2-fluoro-4-{3-[2-(4-fluorophenyl)acetyl]thioureido}phenoxy)pyrimidine]
58	CN(C)CCN1CCC(N(C)C(=O)Nc2cc(Oc3ccc(NC(=S)NC(=O)Cc4ccccc4)cc3F)ccn2)CC1 [Example 223, 1-[1-(2-Dimethylaminoethyl)piperidin-4-yl]-3-{4-[2-fluoro-4-(3-phenylacetylthioureido)phenoxy]pyridin-2-yl}-1-methylurea]
130	CN(C)CC1CCN(C(=O)Nc2cc(Oc3ccc(NC(=S)NC(=O)Cc4ccc(F)cc4)cc3)ccn2)CC1 [Example 188, 2-{[4-(Dimethylaminomethyl)piperidin-1-yl]carbonylamino}-4-(4-{3-[2-(4-fluorophenyl)acetyl]thioureido}phenoxy)pyridine]
68	CN1CC(N2CCN(C(=O)Nc3cc(Oc4ccc(NC(=O)NC(=O)Cc5ccccc5)cc4F)ccn3)CC2)C1 [Example 377, 4-(1-Methylazetidin-3-yl)piperazine-1-carboxylic acid {4-[2-fluoro-4-(3-phenylacetylureido)phenoxy]pyridin-2-yl}amide]
50	CN1CC[C@H](N(C)C(=O)Nc2cc(Oc3ccc(NC(=S)NC(=O)Cc4ccc(F)cc4)cc3F)ncn2)C1 [Example 201, 3-[6-(2-Fluoro-4-{3-[2-(4-fluorophenyl)acetyl]thioureido}phenoxy)pyrimidin-4-yl]-1-methyl-1-[(3S)-1-methylpyrrolidin-3-yl]urea]
56	CN(C)C(=O)Nc1cc(Oc2ccc(NC(=S)NC(=O)CC3CCCCC3)cc2F)ccn1 [Example 16, 2-[(Dimethylamino)carbonylamino]-4-{2-fluoro-4-[3-(2-cyclohexylacetylthio)ureido]phenoxy}pyridine]

Continued, molecule first:

Compound	IC50 [nM]
O=C(Cc1ccc(F)cc1)NC(=O)Nc1ccc(Oc2ccnc(NC(=O)N3CCC(N4CCC4)CC3)c2)cc1F [Example 178, 4-(Azetidin-1-yl)piperidine-1-carboxylic acid [4-(3-fluoro-4-{3-[2-(4-fluorophenyl)acetyl]ureido}phenoxy)pyridin-2-yl]amide]	63
CN1CCC(N2CCN(C(=O)Nc3cc(Oc4ccc(NC(=S)NC(=O)Cc5ccc(F)cc5)cc4)ccn3)CC2)CC1 [Example 329, 4-(4-{3-[2-(4-Fluorophenyl)acetyl]thioureido}phenoxy)-2-{[4-(1-methylpiperidin-4-yl)piperazin-1-yl]carbonylamino}pyridine]	64
CN(C)CCCN1CCC(N(C)C(=O)Nc2cc(Oc3ccc(NC(=S)NC(=O)Cc4ccc(F)cc4)cc3F)ccn2)CC1 [Example 225, 1-[1-(3-Dimethylaminopropyl)piperidin-4-yl]-3-[4-(2-fluoro-4-{3-[2-(4-fluorophenyl)acetyl]thioureido}phenoxy)pyridin-2-yl]-1-methylurea]	79
CN(C)CCN1CCN(C(=O)Nc2cc(Oc3ccc(NC(=O)NC(=O)Cc4ccc(F)cc4)cc3F)ccn2)CC1 [Example 362, 2-{[4-(2-Dimethylaminoethyl)piperazin-1-yl]carbonylamino}-4-(2-fluoro-4-{3-[2-(4-fluorophenyl)acetyl]ureido}phenoxy)pyridine]	130
CN(C)CC1CCN(C(=O)Nc2cc(Oc3ccc(NC(=O)NC(=O)Cc4ccc(F)cc4)cc3F)ccn2)CC1 [Example 347, 2-{[4-(Dimethylaminomethyl)piperidin-1-yl]carbonylamino}-4-(2-fluoro-4-{3-[2-(4-fluorophenyl)acetyl]ureido}phenoxy)pyridine]	62
CC(=O)Nc1cc(Oc2ccc(NC(=O)CC(=O)Nc3ccc(F)cc3)c(F)c2)ccn1 [Example 74, N-(4-Fluorophenyl)-N′-[4-(2-acetylaminopyridin-4-yloxy)-2-fluorophenyl]malonamide]	33
O=C(Cc1ccccc1)NC(=S)Nc1ccc(Oc2ccnc(NC(=O)N3CCC(N4CCC(O)CC4)CC3)c2)c(F)c1 [Example 185, 4-{2-Fluoro-4-[3-(2-phenylacetyl)thioureido]phenoxy}-2-{[4-(4-hydroxypiperidin-1-yl)piperidin-1-yl]carbonylamino}pyridine]	47
CN1CC(N2CCN(C(=O)Nc3cc(Oc4ccc(NC(=O)NC(=O)Cc5ccc(F)cc5)cc4)ccn3)CC2)C1 [Example 376, 4-(1-Methylazetidin-3-yl)piperazine-1-carboxylic acid [4-(4-{3-[2-(4-fluorophenyl)acetyl]ureido}phenoxy)pyridin-2-yl]amide]	65
CN1CC(N2CCC(N(C)C(=O)Nc3cc(Oc4ccc(NC(=S)NC(=O)Cc5ccccc5)cc4F)ccn3)CC2)C1 [Example 330, 3-{4-[2-Fluoro-4-(3-phenylacetylthioureido)phenoxy]pyridin-2-yl}-1-methyl-1-[1-(1-methylazetidin-3-yl)piperidin-4-yl]urea]	50
O=C(Cc1ccc(F)cc1)NC(=S)Nc1ccc(Oc2ccnc(NC(=O)N3CCN(CCN4CCC4)CC3)c2)cc1 [Example 398, 4-[2-(Azetidin-1-yl)ethyl]piperazine-1-carboxylic acid [4-(4-{3-[2-(4-fluorophenyl)acetyl]thioureido}phenoxy)pyridin-2-yl]amide]	47
CN1CC[C@H](N(C)C(=O)Nc2cc(Oc3ccc(NC(=S)NC(=O)Cc4ccc(F)cc4)c(F)c3)ncn2)C1 [Example 281, 3-[6-(3-Fluoro-4-{3-[2-(4-fluorophenyl)acetyl]thioureido}phenoxy)pyrimidin-4-yl]-1-methyl-1-[(3S)-1-methylpyrrolidin-3-yl]urea]	28
O=C(Cc1ccccc1)NC(=S)Nc1ccc(Oc2ccnc(NC(=O)N3CC(N4CCCC4)C3)c2)c(F)c1 [Example 261, 3-(Pyrrolidin-1-yl)azetidine-1-carboxylic acid {4-[2-fluoro-4-(3-phenylacetylthioureido)phenoxy]pyridin-2-yl}amide]	100
O=C(Cc1ccccc1)NC(=S)Nc1ccc(Oc2ccnc(NC(=O)N3CCC(N4CCC4)CC3)c2)c(F)c1 [Example 39, 2-{[4-(Azetidin-1-yl)piperidin-1-yl]carbonylamino}-4-{2-fluoro-4-[3-(2-phenylacetyl)thioureido]phenoxy}pyridine]	50
